Laboratory results taken from ChEMBL document CHEMBL1201862, “PubChem BioAssay data set” (2004).
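Test compounds were applied to cells in 96-well plates for 48 hours at 5 doses. GI50: concentration for 50% inhibition of growth.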 Activity calls are given as the source filed them. Rule as the data show it: active = GI50 up to about 1.1 µM and inactive = higher.

Tests used:
Assay in all cases: DTP human tumour cell line panel, 48 h
HOP-62 = test system: HOP-62
MOLT-4 = test system: MOLT-4
ACHN = test system: ACHN
HCT-15 = test system: HCT-15
SF-295 = test system: SF-295
U-251 = test system: U-251
CAKI-1 = test system: CAKI-1
OVCAR-4 = test system: OVCAR-4
SK-MEL-5 = test system: SK-MEL-5
Malme-3M = test system: Malme-3M
A498 = test system: A498
IGROV-1 = test system: IGROV-1
RXF 393 = test system: RXF 393
TK-10 = test system: TK-10
SN12C = test system: SN12C
NCI-H23 = test system: NCI-H23
MCF7 = test system: MCF7
OVCAR-3 = test system: OVCAR-3
DU-145 = test system: DU-145
UO-31 = test system: UO-31

| SMILES | GI50 (HOP-62) | GI50 (MOLT-4) | GI50 (ACHN) | GI50 (HCT-15) [µM] | GI50 (SF-295) | GI50 (U-251) | GI50 (CAKI-1) | GI50 (OVCAR-4) | GI50 (SK-MEL-5) | GI50 (Malme-3M) | GI50 (A498) | GI50 (IGROV-1) | GI50 (RXF 393) | GI50 (TK-10) | GI50 (SN12C) | GI50 (NCI-H23) | GI50 (MCF7) | GI50 (OVCAR-3) | GI50 (DU-145) | GI50 (UO-31) |
| --- | --- | --- | --- | --- | --- | --- | --- | --- | --- | --- | --- | --- | --- | --- | --- | --- | --- | --- | --- | --- |
| OC(C/C(=N\N=C(/CC(O)(C(F)(F)F)C(F)(F)F)c1ccccc1)c1ccccc1)(C(F)(F)F)C(F)(F)F | > 10 µM (inactive) | > 10 µM (inactive) | > 10 µM (inactive) | > 10 | 6.44 µM (inactive) | > 10 µM (inactive) | > 10 µM (inactive) | > 10 µM (inactive) | > 10 µM (inactive) | > 10 µM (inactive) | > 10 µM (inactive) | > 10 µM (inactive) | 3.17 µM (inactive) | > 10 µM (inactive) | > 10 µM (inactive) | > 10 µM (inactive) | > 10 µM (inactive) | > 10 µM (inactive) | > 10 µM (inactive) | – |
| COC(=O)C1(SC)C2CCC3C2CCC31 (stereo unspecified) | > 100 µM (inactive) | > 100 µM (inactive) | > 100 µM (inactive) | > 100 | > 100 µM (inactive) | > 100 µM (inactive) | > 100 µM (inactive) | > 100 µM (inactive) | > 100 µM (inactive) | > 100 µM (inactive) | > 100 µM (inactive) | > 100 µM (inactive) | > 100 µM (inactive) | – | > 100 µM (inactive) | > 100 µM (inactive) | > 100 µM (inactive) | > 100 µM (inactive) | > 100 µM (inactive) | > 100 µM (inactive) |
| O=c1oc(-c2ccccc2)c(-c2ccccc2)n1-c1ccc(Br)cc1 | 33.2 µM (inactive) | > 100 µM (inactive) | > 100 µM (inactive) | > 100 | 28.1 µM (inactive) | 24.2 µM (inactive) | > 100 µM (inactive) | 27 µM (inactive) | 76.6 µM (inactive) | – | 26.2 µM (inactive) | 29.6 µM (inactive) | 36.3 µM (inactive) | 31.8 µM (inactive) | 71.3 µM (inactive) | 19.8 µM (inactive) | > 100 µM (inactive) | 47.5 µM (inactive) | 21 µM (inactive) | > 100 µM (inactive) |
| O=C1NCN(c2ccccc2)C12CCN(CCc1ccc3[nH]c(=S)[nH]c3c1)CC2 | > 100 µM (inactive) | 41.4 µM (inactive) | > 100 µM (inactive) | > 100 | 51.3 µM (inactive) | 29.4 µM (inactive) | > 100 µM (inactive) | > 100 µM (inactive) | 17.5 µM (inactive) | 15.6 µM (inactive) | 53.6 µM (inactive) | 37.6 µM (inactive) | 13 µM (inactive) | 24.7 µM (inactive) | 36.1 µM (inactive) | 65.9 µM (inactive) | 28.5 µM (inactive) | 48 µM (inactive) | 39.7 µM (inactive) | – |
| O=C1CSC2(CC(/C=C/c3ccccc3[N+](=O)[O-])=NN2c2cccc(S(=O)(=O)O)c2)N1c1nc2ccccc2s1 (stereo unspecified) | – | 15.7 µM (inactive) | 17.1 µM (inactive) | 17 | – | 14.5 µM (inactive) | 32.7 µM (inactive) | 15.3 µM (inactive) | 25.4 µM (inactive) | 24.4 µM (inactive) | 18.2 µM (inactive) | 15.3 µM (inactive) | 23.8 µM (inactive) | 15.1 µM (inactive) | 20.3 µM (inactive) | 16.9 µM (inactive) | 12.5 µM (inactive) | – | 12.5 µM (inactive) | 14.2 µM (inactive) |
| COc1cnc2oc3ccc(O)cc3c2c1-c1ccccc1 | 24 µM (inactive) | > 100 µM (inactive) | > 100 µM (inactive) | > 100 | 83 µM (inactive) | > 100 µM (inactive) | > 100 µM (inactive) | > 100 µM (inactive) | 61.9 µM (inactive) | 40 µM (inactive) | > 100 µM (inactive) | – | > 100 µM (inactive) | > 100 µM (inactive) | > 100 µM (inactive) | 44.7 µM (inactive) | 39.7 µM (inactive) | 4.27 µM (inactive) | > 100 µM (inactive) | 66.7 µM (inactive) |
| Cc1cc(S(=O)(=O)Nc2nc(N)n(-c3ccccn3)n2)c(S)cc1Cl | > 100 µM (inactive) | > 100 µM (inactive) | > 100 µM (inactive) | > 100 | – | > 100 µM (inactive) | > 100 µM (inactive) | > 100 µM (inactive) | > 100 µM (inactive) | > 100 µM (inactive) | > 100 µM (inactive) | > 100 µM (inactive) | > 100 µM (inactive) | > 100 µM (inactive) | > 100 µM (inactive) | – | > 100 µM (inactive) | > 100 µM (inactive) | > 100 µM (inactive) | > 100 µM (inactive) |
| NCCCN(CCCCN(CCCN)CCCc1ccccc1)CCCc1ccccc1 | 9.89 µM (inactive) | 2 µM (inactive) | 2.68 µM (inactive) | 1.96 | 1.69 µM (inactive) | 1.98 µM (inactive) | 2.15 µM (inactive) | 4.89 µM (inactive) | 1.83 µM (inactive) | – | 13.1 µM (inactive) | 2.65 µM (inactive) | 2.37 µM (inactive) | 12.4 µM (inactive) | 3.9 µM (inactive) | 4.32 µM (inactive) | 1.96 µM (inactive) | 1.73 µM (inactive) | 8.11 µM (inactive) | 2.19 µM (inactive) |
| COc1cc(Cc2cnc(N)nc2N)cc(OC)c1OCCCNc1ccc([N+](=O)[O-])cc1 | 13.6 µM (inactive) | 2.72 µM (inactive) | 18 µM (inactive) | 14.6 | – | 13.7 µM (inactive) | 33.2 µM (inactive) | 15.8 µM (inactive) | 5.79 µM (inactive) | 12.7 µM (inactive) | 14.9 µM (inactive) | 12.5 µM (inactive) | 10.4 µM (inactive) | 14.3 µM (inactive) | 16.3 µM (inactive) | 16 µM (inactive) | 12.1 µM (inactive) | 14.5 µM (inactive) | 15.8 µM (inactive) | 12.4 µM (inactive) |
| CC(=O)C1=CN=C2C(=O)N(c3ccccc3)N(C)C12C (stereo unspecified) | – | > 100 µM (inactive) | > 100 µM (inactive) | 69.7 | > 100 µM (inactive) | > 100 µM (inactive) | > 100 µM (inactive) | > 100 µM (inactive) | > 100 µM (inactive) | > 100 µM (inactive) | > 100 µM (inactive) | > 100 µM (inactive) | > 100 µM (inactive) | 49.9 µM (inactive) | > 100 µM (inactive) | > 100 µM (inactive) | > 100 µM (inactive) | > 100 µM (inactive) | > 100 µM (inactive) | > 100 µM (inactive) |
| CN(C)c1ccc(/C=C2\N=C(NN)NC2=O)cc1 | > 100 µM (inactive) | 8.85 µM (inactive) | > 100 µM (inactive) | 50.8 | > 100 µM (inactive) | 47.6 µM (inactive) | > 100 µM (inactive) | 79.4 µM (inactive) | – | > 100 µM (inactive) | 98.2 µM (inactive) | 75.5 µM (inactive) | 63.5 µM (inactive) | > 100 µM (inactive) | > 100 µM (inactive) | > 100 µM (inactive) | 54.8 µM (inactive) | 86.3 µM (inactive) | 76.7 µM (inactive) | 94.6 µM (inactive) |
